Results from patent US20130252951A1, “7-HYDROXY-PYRAZOLO[1,5-A] PYRIMIDINE COMPOUNDS AND THEIR USE AS CCR2 RECEPTOR ANTAGONISTS” (Proximagen Limited, priority 2010, published 2013).

Each molecule was assayed against human CCR2 (Homo sapiens, UniProt P41597) (assay: CCR2 functional calcium assay (FLIPR calcium flux, hMCP-1 challenge)). Details: HEK293 EBNA cells transfected with human CCR2, hMCP-1 challenge; read-out: Functional CCR2 fKi.
Assay type: cell-based
Parameters: expressed in transfected cells; host or cells: HEK293 EBNA cells
Source text: The CCR2 receptor couples through the Gi/Gq signaling pathway and results in activation of calcium mobilization. The functional activity of test compounds was routinely tested by measuring the ability of compounds to antagonize CCR2 activity in a dose dependent manner, in HEK293 EBNA cells transfected with the human CCR2 receptor (hMCP-1 challenge), using a calcium flux Fluorescent Imaging Plate Reader FLIPR assay. Non-transfected HEK293 EBNA cells were used as control of non-specific response.
Briefly, test compounds were dissolved in dimethyl sulfoxide (DMSO) to a concentration of 10 mM and stored in matrix screenmate racks. The required amount of compound was transferred to 96-well compound plates on the day of assay and diluted in assay buffer to the required final concentration; dose-response measurements were assayed by making 1:3 serial dilutions to produce 10 point curves. The compounds were then transferred to 384-well assay plates ready for use. Top concentrations were adjusted depending on the potency of the compounds with a typical concentration range of 30 μM to 0.5 nM being used. The assay buffer used was HBSS buffer supplemented with 20 mM HEPES and 0.1% BSA, pH7.4. The loading/wash buffers were the same as the assay buffer.
Cells were suspended in culture medium at a density of 10000 cells/50 μl (the cell culture media composition was DMEM high glucose supplemented with 10% dialyzed FBS, 250 μg/ml Geneticin, and 400 μg/ml Hygromycin B), transferred to 384-well black/clear Costar plates (Costar #3712) (50 μl/well) and incubated at 37° C., in a 5% CO2/95% air humidified incubator for 16 h. The cells were washed with assay buffer at 37° C. using the Biotek ELx 405, washing 3 times, leaving 20 μl buffer in the well. 20 μl Fluo-4 (Fluo-4 stock solution (1 mM) was prepared by dissolving one vial of Fluo-4 (50 μg) in 45 μl of pluronic acid (240 mg/ml in DMSO). This stock solution of Fluo-4 was then diluted 250 times with loading buffer to give a Fluo-4 concentration of 4 μM. The dye solution (used within 2 h and kept away from light) was added to each well using a repeating multichannel pipette; the cells were then incubated at 37° C. for 60 min. Following the incubation, cells were washed in assay buffer at 37° C. using the Biotek ELx 405, washing 3 times, leaving 40 μl in each well and incubated for 10 min at 37° C. before use. A combined agonist/antagonist protocol was used. Compound (antagonist) was added to the cell plate using the FLIPR. Basal fluorescence was recorded every second for 10 seconds prior to compound addition (10 μl) and fluorescence recorded every second for 1 minute then every 6 seconds for a further 1 minute. Agonist (MCP-1) was then added using the FLIPR and fluorescence recorded as described above.
The positive control (agonist) was human recombinant MCP-1 which was stored as a stock concentration of 10 μM in distilled water and stored at −20° C. (maximal response: 30 nM; EC50 dose: 3-5 nM). The reference compound (antagonist) was RS102895 which was used as a 10 mM DMSO solution and stored at −20° C.
FLIPR responses were measured as peak minus basal fluorescence intensity and were expressed as a percentage of EC50 MCP-1 challenge. Curve-fitting and parameter estimation were carried out using GraphPad Prism 4.0 (GraphPad Software Inc., San Diego, Calif.).

Chain of human CCR2 (P41597 whole entry): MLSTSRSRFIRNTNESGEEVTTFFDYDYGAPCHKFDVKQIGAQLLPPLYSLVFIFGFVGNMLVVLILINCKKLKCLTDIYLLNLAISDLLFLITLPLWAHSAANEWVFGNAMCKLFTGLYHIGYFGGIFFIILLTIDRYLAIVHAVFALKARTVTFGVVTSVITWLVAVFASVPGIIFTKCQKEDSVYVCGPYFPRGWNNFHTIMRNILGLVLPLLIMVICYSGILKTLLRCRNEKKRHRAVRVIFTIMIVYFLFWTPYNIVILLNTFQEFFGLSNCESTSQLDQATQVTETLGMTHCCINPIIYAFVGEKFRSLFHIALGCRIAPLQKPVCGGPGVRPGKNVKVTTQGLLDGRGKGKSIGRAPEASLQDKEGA

Row | Ki [nM] | Compound
1 | < 10 | CCc1nc2ccnn2c(O)c1Oc1ccc(F)c(F)c1 [Example 62, 6-(3,4-Difluorophenoxy)-5-ethyl-pyrazolo[1,5-a]pyrimidin-7-ol]
2 | < 10 | Oc1c(Cc2ccc(C(F)(F)F)c(F)c2)c(C2CC2)nc2ccnn12 [Example 32, 5-Cyclopropyl-6-{[3-fluoro-4-(trifluoromethyl)phenyl]methyl}pyrazolo[1,5-a]pyrimidin-7-ol]
3 | 100 to 1000 | COCCNC(=O)c1cnn2c(O)c(Cc3cccc(Cl)c3)c(C)nc12 [Example 116, 6-[(3-Chlorophenyl)methyl]-7-hydroxy-N-(2-methoxyethyl)-5-methylpyrazolo[1,5-a]-pyrimidine-3-carboxamide]
4 | < 10 | COCc1nc2ccnn2c(O)c1Cc1ccc(Cl)c(Cl)c1 [Example 53, 6-[(3,4-Dichlorophenyl)methyl]-5-(methoxymethyl)pyrazolo[1,5-a]pyrimidin-7-ol]
5 | < 10 | Oc1c(Cc2ccc(Cl)c(Cl)c2)c(C2CCC2)nc2ccnn12 [Example 50, 5-Cyclobutyl-6-[(3,4-dichlorophenyl)-methyl]pyrazolo[1,5-a]pyrimidin-7-ol]
6 | 10 to 100 | CCOC(=O)c1nc2ccnn2c(O)c1Oc1ccc(Cl)c(F)c1 [Example 75, Ethyl 6-(4-chloro-3-fluorophenoxy)-7-hydroxypyrazolo[1,5-a]pyrimidine-5-carboxylate]
7 | < 10 | CCc1nc2ccnn2c(O)c1Cc1cc(F)cc(F)c1 [Example 12, 6-[(3,5-difluorophenyl)methyl]-5-ethyl-pyrazolo[1,5-a]pyrimidin-7-ol]
8 | 100 to 1000 | Cc1nc2ccnn2c(O)c1Sc1cccc(F)c1 [Example 77, 6-[(3-Fluorophenyl)sulfanyl]-5-methyl-pyrazolo[1,5-a]pyrimidin-7-ol]
9 | < 10 | CCOC(=O)c1nc2ccnn2c(O)c1Cc1ccc(Cl)c(F)c1 [Example 74, Ethyl 6-[(4-chloro-3-fluorophenyl)methyl]-7-hydroxy pyrazolo[1,5-a]pyrimidine-5-carboxylate]
10 | 100 to 1000 | Cc1nc2c(C(=O)NCCc3ccccc3)cnn2c(O)c1Cc1ccc(Cl)cc1 [Example 105, 6-[(4-Chlorophenyl)methyl]-7-hydroxy-5-methyl-N-(2-phenylethyl)pyrazolo[1,5-a]pyrimidine-3-carboxamide]
11 | 100 to 1000 | Cc1nc2c(C#N)cnn2c(O)c1Cc1ccc(Cl)cc1 [Example 59, 6-[(4-Chlorophenyl)methyl]-7-hydroxy-5-methylpyrazolo[1,5-a]pyrimidine-3-carbonitrile]
12 | < 10 | Oc1c(Cc2ccc(F)c(C(F)(F)F)c2)c(C2CCC2)nc2ccnn12 [Example 47, 5-Cyclobutyl-6-{[4-fluoro-3-(trifluoro-methyl)phenyl]methyl}pyrazolo[1,5-a]-pyrimidin-7-ol]
13 | 10 to 100 | COCc1nc2ccnn2c(O)c1Cc1ccc(Cl)c(F)c1 [Example 52, 6-[(4-Choro-3-fluorophenyl)methyl]-5-(methoxymethyl)pyrazolo[1,5-a]pyrimidin-7-ol]
14 | < 10 | CC(C)OC(=O)c1nc2ccnn2c(O)c1Cc1ccc(F)c(Cl)c1 [Example 87, Propan-2-yl6-[(3-chloro-4-fluorophenyl)methyl]-7-hydroxypyrazolo[1,5-a]pyrimidine-5-carboxylate]
15 | 100 to 1000 | CC(O)c1nc2ccnn2c(O)c1Cc1cccc(F)c1 (centres unmarked) [Example 95, 6-[(3-Fluorophenyl)methyl]-5-(1-hydroxyethyl)pyrazolo[1,5-a]pyrimidin-7-ol]
16 | 10 to 100 | Oc1c(Cc2cccc(OC(F)(F)F)c2)c(C2CC2)nc2ccnn12 [Example 20, 5-Cyclopropyl-6-{[3-(trifluoromethoxy)-phenyl]methyl}pyrazolo[1,5-a]pyrimidin-7-ol]
17 | 10 to 100 | CCOC(=O)c1nc2ccnn2c(O)c1Cc1cccc(C(F)(F)F)c1 [Example 71, Ethyl 7-hydroxy-6-{[3-(trifluoromethyl)-phenyl]methyl}pyrazolo[1,5-a]pyrimidine-5-carboxylate]
